Structures can show the parent of a compound that is named as a salt.
Target: T1, Cloned Human Serotonin Receptor, subtype 7 (h5HT7) (Homo sapiens, UniProt P34969)
T1 construct: purchased PerkinElmer 6120512; host or cells: CHO cells (membranes coated on Basic FlashPlate, Cat. SMP200)
Test: Radioligand binding assay, cloned human 5-HT7 receptor in CHO cells, [125I]LSD, Flashplate
Conditions: h5HT7 expressed in CHO cells; [125I]LSD 0.82 nM; triplicate determinations; read-out: 5-HT7 IC-50
Method: Biological Assays Radioligand Binding
Radioligand binding assays were performed using the Cloned Human Serotonin Receptor, subtype 7 (h5HT7), expressed in CHO cells, coated on Flashplate (Basic FlashPlate Cat.: SMP200) from PerkinElmer (Cat.: 6120512). The protocol assay was essentially the recommended protocol in the Technical Data Sheet by PerkinEmer Life and Analytical Sciences. The Mass membrane protein/well was typically 12 μg and the Receptor/well was about 9–10 fmoles. The Flashplate were let equilibrate at room temperature for one hour before the addition of the components of the assay mixture. The binding buffer was: 50 mM Trish-CHl, pH 7.4, containing 10 mM MgCl2, 0.5 mM EDTA and 0.5% BSA. The radioligand was [^125I]LSD at a final concentration of 0.82 nM. Nonspecific binding was determined with 50 μM of Clozapine. The assay volume was 25 μl. TopSeal-A were applied onto Flashplate microplates and they were incubated at room temperature for 240 minutes in darkness. The radioactivity were quantified by liquid scintillation spectrophotometry (Wallac 1450 Microbeta Trilux) with a count delay of 4 minutes prior to counting and a counting time of 30 seconds per well. Competition binding data were analyzed by using the LIGAND program (Munson and Rodbard, LIGAND: A versatile, computerized approach for characterization of ligand-binding systems. Anal. Biochem. 107: 220–239, 1980) and assays were performed in triplicate determinations for each point.

T1 sequence (P34969 whole entry): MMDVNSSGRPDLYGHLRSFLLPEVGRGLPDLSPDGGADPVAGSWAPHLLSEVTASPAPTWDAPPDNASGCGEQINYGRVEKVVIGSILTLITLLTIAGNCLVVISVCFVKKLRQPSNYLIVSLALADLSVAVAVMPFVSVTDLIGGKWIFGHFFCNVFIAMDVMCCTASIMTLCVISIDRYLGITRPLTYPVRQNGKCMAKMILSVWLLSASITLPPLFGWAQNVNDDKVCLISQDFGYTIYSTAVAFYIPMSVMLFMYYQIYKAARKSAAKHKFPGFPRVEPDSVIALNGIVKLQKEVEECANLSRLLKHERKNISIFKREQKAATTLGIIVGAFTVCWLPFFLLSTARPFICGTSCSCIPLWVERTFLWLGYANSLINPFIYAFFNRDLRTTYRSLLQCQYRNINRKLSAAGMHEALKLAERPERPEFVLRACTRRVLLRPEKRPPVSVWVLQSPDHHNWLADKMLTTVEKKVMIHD

**Q.** Which IC50 does the source give for O=S(=O)(NCCCCN1CCc2ccccc2C1)c1ccc2ccccc2c1 [Compound 2, Naphthalene-2-sulfonic acid [4-(3,4-dihydro-1H-isoquinolin-2-yl)-butyl]-amide hydrochloride] here?
**A.** The IC50 was 59.2 nM.

**Q.** With O=S(=O)(NCCCCN1CCc2ccccc2C1)c1ccccc1 [Compound 5, N-[4-(3,4-Dihydro-1H-isoquinolin-2-yl)-butyl]-benzenesulfonamidehydrochloride] as the compound, how does the IC50 read?
**A.** Its IC50 is 33.2 nM.

**Q.** Which IC50 does the source give for COc1cc2c(cc1OC)CN(CCCCNS(=O)(=O)c1cc(Cl)c(F)cc1F)CC2 [Compound 116, 5-Chloro-N-[4-(6,7-dimethoxy-3,4-dihydro-1H-isoquinolin-2-yl)-butyl]-2,4-difluoro-benzenesulfonamide] here?
**A.** Its IC50 is 31.1 nM.

**Q.** With COc1cc2c(cc1OC)CN(CCCCNS(=O)(=O)c1ccccc1Cl)CC2 [Compound 118, 2-Chloro-N-[4-(6,7-dimethoxy-3,4-dihydro-1H-isoquinolin-2-yl)-butyl]-benzenesulfonamidehydrochloride] as the compound, how does the IC50 read?
**A.** The IC50 was 39.2 nM.

**Q.** O=S(=O)(NCCCCN1CCc2ccccc2C1)c1cc(F)ccc1F [Compound 140, N-[4-(3,4-Dihydro-1H-isoquinolin-2-yl)-butyl]-2,5-difluoro-benzenesulfonamidehydrochloride] was tested. Which IC50 did it give?
**A.** Its IC50 is 60.8 nM.

**Q.** For O=S(=O)(NCCCCN1CCc2ccccc2C1)c1cc(F)c(F)cc1F [Compound 142, N-[4-(3,4-Dihydro-1H-isoquinolin-2-yl)-butyl]-2,4,5-trifluoro-benzenesulfonamidehydrochloride], which IC50 is on record?
**A.** The IC50 was 80.4 nM.

**Q.** Which IC50 does the source give for COc1cc2c(cc1OC)CN(CCCCNS(=O)(=O)c1cc(F)c(F)cc1Cl)CC2 [Compound 151, 2-Chloro-N-[4-(6,7-dimethoxy-3,4-dihydro-1H-isoquinolin-2-yl)-butyl]-4,5-difluoro-benzenesulfonamidehydrochloride] here?
**A.** Its IC50 is 39 nM.

**Q.** For O=S(=O)(NCCCCN1CCc2ccccc2C1)c1c(F)cc(F)cc1Br [Compound 160, 2-Bromo-N-[4-(3,4-dihydro-1H-isoquinolin-2-yl)-butyl]-4,6-difluoro-benzenesulfonamidehydrochloride], which IC50 is on record?
**A.** Its IC50 is 74.4 nM.

**Q.** How did the IC50 turn out when COc1cc2c(cc1OC)CN(CCCCNS(=O)(=O)c1cccc(C)c1)CC2 [Compound 210, N-[4-(6,7-Dimethoxy-3,4-dihydro-1H-isoquinolin-2-yl)-butyl]-3-methyl-benzenesulfonamidehydrochloride] was run?
**A.** Its IC50 is 37.3 nM.

**Q.** For COc1cc2c(cc1OC)CN(CCCCNS(=O)(=O)c1cc(C)c(Cl)cc1C)CC2 [Compound 220, 4-Chloro-N-[4-(6,7-dimethoxy-3,4-dihydro-1H-isoquinolin-2-yl)-butyl]-2,5-dimethyl-benzenesulfonamidehydrochloride], which IC50 is on record?
**A.** Its IC50 is 67.4 nM.

**Q.** For COc1ccc(OC)c(S(=O)(=O)NCCCCN2CCc3cc(OC)c(OC)cc3C2)c1 [Compound 235, N-[4-(6,7-Dimethoxy-3,4-dihydro-1H-isoquinolin-2-yl)-butyl]-2,5-dimethoxy-benzenesulfonamidehydrochloride], which IC50 is on record?
**A.** The IC50 was 68.4 nM.

**Q.** For COc1cc2c(cc1OC)CN(CCCCNS(=O)(=O)c1ccccc1Br)CC2 [Compound 257, 2-Bromo-N-[4-(6,7-dimethoxy-3,4-dihydro-1H-isoquinolin-2-yl)-butyl]-benzenesulfonamidehydrochloride], which IC50 is on record?
**A.** Its IC50 is 57.2 nM.

Reference: US7211585B2, “5-HT7 receptor antagonists” (Laboratorios del Dr. Esteve, S.A., priority 2004, dated 2007)
